# BindingDB's records for doi:10.1016/j.bmcl.2016.04.067 (Peking University Health Science Center, 2016)
# Columns and labels:
# [1] = Inhibition of caspase-like activity of 20S human proteasome assessed as Z-nLPnLD-AMC hydrolysis at using Promega proteasome-Glo-3 substrate incubated for 15 mins by luminescence assay
# [2] = Inhibition of trypsin-like activity of 20S human proteasome assessed as Z-LRR-AMC hydrolysis at using Promega proteasome-Glo-3 substrate incubated for 15 mins by luminescence assay
Structure (SMILES),IC50 [1] [µM],IC50 [2] [µM]
CNc1ccc(-n2nc(-c3ccc(OCCCC[P+](c4ccccc4)(c4ccccc4)c4ccccc4)cc3)c3ccccc3c2=O)cc1,131,390
O=c1c2ccccc2c(-c2ccc(OCCCC[P+](c3ccccc3)(c3ccccc3)c3ccccc3)cc2)nn1CC1CCCCC1,50.4,643
CC(C)Cn1nc(-c2ccc(OCCCC[P+](c3ccccc3)(c3ccccc3)c3ccccc3)cc2)c2ccccc2c1=O,80.2,276
O=c1c2ccccc2c(-c2ccc(OCCCC[P+](c3ccccc3)(c3ccccc3)c3ccccc3)cc2)nn1-c1cccs1,70.5,558
O=c1c2ccccc2c(-c2ccc(OCCCC[P+](c3ccccc3)(c3ccccc3)c3ccccc3)cc2)nn1-c1ccccc1,103,220
O=c1c2ccccc2c(-c2ccc(OCCCC[P+](c3ccccc3)(c3ccccc3)c3ccccc3)cc2)nn1CC1CC1,133,589
